Patent US7271171B2, “Adenosine A3 receptor modulators” (King Pharmaceuticals Research and Development, Inc., priority 1998, dated 2007)
Where a name gives a salt, the structure may show the parent alone. Read-outs that look alike come from different tables or passages of the source.

Tests used:
[1] = target: T1, human recombinant A1 adenosine receptor (Homo sapiens, UniProt P30542); assay: Human cloned A1 receptor binding, [3H]-DPCPX, CHO cells; settings: read-out: hA1 (Ki)
T1 construct: expressed in transfected cells; host or cells: CHO
T1 sequence (P30542 1-326): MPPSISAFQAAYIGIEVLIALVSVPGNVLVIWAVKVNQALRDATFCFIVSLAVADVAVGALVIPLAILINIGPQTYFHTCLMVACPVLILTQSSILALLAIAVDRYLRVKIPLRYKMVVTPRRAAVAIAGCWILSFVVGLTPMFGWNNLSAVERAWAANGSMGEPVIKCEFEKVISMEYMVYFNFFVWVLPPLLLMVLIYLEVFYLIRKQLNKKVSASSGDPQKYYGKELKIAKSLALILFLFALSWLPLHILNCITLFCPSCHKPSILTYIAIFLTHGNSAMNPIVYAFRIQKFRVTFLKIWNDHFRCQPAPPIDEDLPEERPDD
Experimental: (§1) The expression of the human A1, A2A, A2B and A3 receptors in CHO cells has been previously described (Klotz et al., 1998). The cells are grown adherently and maintained in Dulbecco's modified Eagle's medium with nutrient mixture F12 without nucleosides at 37 ° C. in 5% CO2/95% air. Cells are split two or three times weekly and then the culture medium is removed for membrane preparations. The cells are washed with phosphate-buffered saline and scraped off flasks in ice cold hypotonic buffer (5 mM Tris HCl, 2 mM EDTA, pH 7.4). The cell suspension is homogenized with Polytron and the homogenate is centrifuged for 30 min. at 48,000 g. The membrane pellet is re-suspended in 50 mM Tris HCl buffer at pH 7.4 for A1 adenosine receptors, in 50 mM Tris HCl, 10 mM MgCl2 at pH 7.4 for A2A adenosine receptors, in 50 mM Tris HCl, 10 mM MgCl2, 1 mM EDTA at pH 7.4 for A3 adenosine receptors and are utilized for binding and adenylate cyclase assays.
Binding of [^3H]-DPCPX to CHO cells transfected with the human recombinant A1 adenosine receptor is performed according to the method previously described by Klotz and coworkers (Klotz, K. N.; Cristalli, G.; Grifantini, M.; Vittori, S.; Lohse, M. J., “Photoaffinity labeling of A1 adenosine receptors,” J. Biol. Chem., 260, 14659-14664, 1985).
(§2) Displacement experiments are performed for 120 min. at 25° C. in 0.20 mL of buffer containing 1 nM [^3H]-DPCPX, 20 μL of diluted membranes (50 μg of protein/assay) and at least 6-8 different concentrations of examined compounds. Non-specific binding is determined in the presence of 10 μM of CHA and this is always 10% of the total binding. Binding of [^3H]-SCH58261 to CHO cells transfected with the human recombinant A2A adenosine receptors (50 μg of protein/assay) was performed according to Varani et al. (Varani, K; Cacciari, B.; Baraldi, P. G.; Dionisotti, S.; Ongini, E.; Borea, P. A., “Binding affinity of adenosine receptor agonists and antagonists at human cloned […] adenosine receptors,” Life Sci., 63, 81-87, 1998). In competition studies, at least 6-8 different concentrations of compounds are used and non-specific binding is determined in the presence of 50 μM NECA for an incubation time of 60 min. at 25° C.

[2] = target: T2, human recombinant A2A adenosine receptors (Homo sapiens, UniProt P29274); assay: Human cloned A2A receptor binding, [3H]-SCH58261, CHO cells; settings: read-out: hA2A (Ki)
T2 construct: expressed in transfected cells; host or cells: CHO
Experimental: as §1, §2

[3] = target: T3, human recombinant A2B adenosine receptors (Homo sapiens, UniProt P29275); assay: Human cloned A2B receptor binding, [3H]-DPCPX, HEK-293 cells; settings: read-out: hA2B (Ki)
T3 construct: host or cells: HEK-293
T3 sequence (P29275 1-332): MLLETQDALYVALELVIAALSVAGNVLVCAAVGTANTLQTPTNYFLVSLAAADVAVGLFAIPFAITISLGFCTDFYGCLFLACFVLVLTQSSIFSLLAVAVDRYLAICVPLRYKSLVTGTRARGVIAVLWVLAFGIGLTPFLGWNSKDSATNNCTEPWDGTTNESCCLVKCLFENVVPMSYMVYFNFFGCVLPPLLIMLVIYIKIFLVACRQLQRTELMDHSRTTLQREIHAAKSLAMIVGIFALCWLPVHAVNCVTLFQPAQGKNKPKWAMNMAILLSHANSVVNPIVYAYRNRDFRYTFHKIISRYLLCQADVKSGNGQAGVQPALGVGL
Experimental: Binding of [^3H]-DPCPX to HEK-293 cells (Receptor Biology, Inc., Beltsville, Md.) transfected with the human recombinant A2B adenosine receptors is performed essentially to the method described by Varani and coworkers (Mol. Pharmacol.). In particular, assays are carried out for 60 min. at 25° C. in 0.1 mL of 50 mM Tris HCl Buffer, 10 mM MgCl2, 1 mM EDTA, 0.1 mM benzamidine pH 7.4, 2 IU/ml adenosine deaminase containing 40 nM [^3H]-DPCPX, diluted membranes (20 µg of protein/assay) and at least 6-8 different concentration of tested compounds. Non-specific binding is determined in the presence of 100 μM of NECA and is always 30% of the total binding.

[4] = target: T4, human recombinant A3 adenosine receptor (Homo sapiens, UniProt P0DMS8); assay: Human cloned A3 receptor binding, [3H] MRE3008-F20, CHO cells; design: expressed in transfected cells; host or cells: CHO; settings: for Ki: CHO cells, [3H] MRE3008-F20, read-out: hA3 (Ki); for hA1/hA3 / hA2A/hA3 / hA2B/hA3: selectivity ratio of Ki values
T4 sequence (P0DMS8 1-318): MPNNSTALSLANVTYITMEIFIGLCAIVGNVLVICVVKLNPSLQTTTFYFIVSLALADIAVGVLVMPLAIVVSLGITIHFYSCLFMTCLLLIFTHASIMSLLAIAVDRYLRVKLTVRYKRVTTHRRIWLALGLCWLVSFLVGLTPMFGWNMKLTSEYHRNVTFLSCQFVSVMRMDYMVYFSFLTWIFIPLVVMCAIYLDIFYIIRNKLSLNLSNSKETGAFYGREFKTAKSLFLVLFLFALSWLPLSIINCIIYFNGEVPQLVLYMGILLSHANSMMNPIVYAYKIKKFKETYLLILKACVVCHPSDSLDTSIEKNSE
Experimental: The cells are grown adherently and maintained in Dulbecco's modified Eagle's medium with nutrient mixture F12 without nucleosides at 37 ° […] Cells are split two or three times weekly and then the culture medium is removed for membrane preparations. The cells are washed with phosphate-buffered saline and scraped off flasks in ice cold hypotonic buffer (5 mM Tris HCl, 2 mM EDTA, pH 7.4). The cell suspension is homogenized with Polytron and the homogenate is centrifuged for 30 min. at 48,000 g. The membrane pellet is re-suspended in 50 mM Tris HCl buffer at pH 7.4 for A1 adenosine receptors, in 50 mM Tris HCl, 10 mM MgCl2 at pH 7.4 for A2A adenosine receptors, in 50 mM Tris HCl, 10 mM MgCl2, 1 mM EDTA at pH 7.4 for A3 adenosine receptors and are utilized for binding and adenylate cyclase assays.

[5] = target: T4, human recombinant A3 adenosine receptor; assay: Human cloned A3 adenosine receptor binding assay, [125I]AB-MECA, HEK-293 membranes; design: USA; host or cells: HEK-293; settings: for Ki: HEK-293 membranes, [125I]AB-MECA, read-out: hA3 (Ki); for rA1/hA3 / rA2A/hA3: selectivity ratio of Ki values
rA2A adenosine receptor = target: T5, rA2A adenosine receptor (Rattus norvegicus, UniProt P30543); assay: Rat A2A adenosine receptor binding assay, [3H]SCH58261 displacement, rat striatum membranes
T5 construct: membranes of rat striatum (80-100 μmg of protein/assay); from tissue; host or cells: striatum of male Wistar rats
Experimental: (§3) Male Wistar rats (200-250 g) were decapitated and the whole brain and striatum dissected on ice. […] The homogenate was centrifuged at 48,000 for 10 min, and the pellet was resuspended in the same buffer containing 2 IU/mL adenosine deaminase. After 30 min incubation at 37° C., the membranes were centrifuged and pellets were stored at −80° C. Prior to freezing, an aliquot of homogenate was removed for protein assay with bovine albumin as reference standard. Binding assays were performed on rat brain and striatum membranes respectively, in the presence of 10 mM MgCl2 at 25° C.
(§4) Separation of bound from free radio ligand was performed by rapid filtration through Whatman GF/B filters which were washed three times with ice-cold buffer. Filter bound radioactivity was measured by scintillation spectrometry after addition of 5 mL of Aquassure. […] Ki values were calculated from the Cheng-Prusoff equation. All binding data were analyzed using the nonlinear regression curve-fitting computer program LIGAND.

rA1 adenosine receptor = target: T6, rA1 adenosine receptor (Rattus norvegicus, UniProt P25099); assay: Rat A1 adenosine receptor binding assay, [3H]CHA displacement, rat brain membranes
T6 construct: membranes of rat brain (150-200 μg- of protein/assay); from tissue; host or cells: whole brain of male Wistar rats
T6 sequence (P25099 1-326): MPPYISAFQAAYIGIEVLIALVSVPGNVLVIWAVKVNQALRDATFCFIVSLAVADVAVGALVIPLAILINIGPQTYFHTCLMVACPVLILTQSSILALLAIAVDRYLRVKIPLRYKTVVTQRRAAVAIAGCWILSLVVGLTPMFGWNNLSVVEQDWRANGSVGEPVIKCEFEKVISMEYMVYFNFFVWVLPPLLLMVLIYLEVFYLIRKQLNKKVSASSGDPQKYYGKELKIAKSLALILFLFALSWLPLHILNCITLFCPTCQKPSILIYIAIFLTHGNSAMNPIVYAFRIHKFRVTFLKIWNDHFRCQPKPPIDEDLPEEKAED
Experimental: as §3, §4

[6] = rat striatum membranes, [3H]SCH58261, read-out: rA2A (Ki)

T5 sequence (P30543 whole entry): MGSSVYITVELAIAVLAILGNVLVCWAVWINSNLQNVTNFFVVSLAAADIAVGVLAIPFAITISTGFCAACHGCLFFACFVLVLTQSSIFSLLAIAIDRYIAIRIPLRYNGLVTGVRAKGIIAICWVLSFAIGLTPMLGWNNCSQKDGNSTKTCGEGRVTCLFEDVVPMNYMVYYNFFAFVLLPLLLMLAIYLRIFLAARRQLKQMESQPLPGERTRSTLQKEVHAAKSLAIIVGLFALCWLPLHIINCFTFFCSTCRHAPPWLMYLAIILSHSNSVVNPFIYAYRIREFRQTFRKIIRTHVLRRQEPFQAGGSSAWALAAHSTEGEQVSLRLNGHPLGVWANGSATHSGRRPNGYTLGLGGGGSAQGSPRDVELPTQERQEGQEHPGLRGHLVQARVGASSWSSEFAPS
T2 sequence (P29274 whole entry): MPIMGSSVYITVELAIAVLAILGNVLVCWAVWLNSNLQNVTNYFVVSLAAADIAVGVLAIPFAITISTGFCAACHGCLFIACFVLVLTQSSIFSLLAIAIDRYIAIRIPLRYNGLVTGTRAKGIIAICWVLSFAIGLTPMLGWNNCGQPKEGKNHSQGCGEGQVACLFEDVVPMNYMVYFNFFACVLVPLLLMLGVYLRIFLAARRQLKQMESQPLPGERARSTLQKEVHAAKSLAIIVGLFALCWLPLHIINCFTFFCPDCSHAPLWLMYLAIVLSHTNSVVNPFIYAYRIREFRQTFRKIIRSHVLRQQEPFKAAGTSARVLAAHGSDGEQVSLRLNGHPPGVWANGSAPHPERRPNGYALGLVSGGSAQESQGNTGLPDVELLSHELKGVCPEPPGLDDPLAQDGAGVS

Ki [3] [nM] | SMILES | Ki [1] [nM] | Ki [2] [nM] | Ki [5] [nM] | rA1/hA3 [5] | rA2A/hA3 [5] | Ki (rA2A adenosine receptor; [6]) [nM] | Ki (rA1 adenosine receptor) [nM] | further results
350 | CCN(CC)c1ccc(NC(=O)Nc2nc3nn(C)cc3c3nc(-c4ccco4)nn23)cc1 [Compound 101, N-[4-(diethylamino)phenyl]-N′-[2-(2-furyl)-8-methyl-8H -pyrazolo[4,3-e][1,2,4]triazolo[1,5-c]pyrimidin-5-yl]urea] | 580 | 523 |  |  |  |  |  | 
 | CCn1cc2c(nc(N)n3nc(-c4ccco4)nc23)n1 [Compound 35, 5-Amino-8-ethyl-2-(2-furyl)-pyrazolo[4,3-e]1,2,4-triazolo[1,5-c]pyrimidine] |  |  | 3580 | 0.03 | 0.003 | 11.2 | 95.1 | 
 | CCCCn1cc2c(nc(NC(=O)Nc3cccc(Cl)c3)n3nc(-c4ccco4)nc23)n1 [Compound 48, 5-[[(3-Chlorophenyl)amino]carbonyl]amino-8-butyl-2-(2-furyl)-pyrazolo[4,3-e]1,2,4-triazolo[1,5-c]pyrimidine] |  |  | 0.75 | 2,020 | 664 | 498 | 1520 | 
 | CC(C)=CCn1cc2c(nc(NC(=O)Nc3cccc(Cl)c3)n3nc(-c4ccco4)nc23)n1 [Compound 52] |  |  | 147 | 25.4 | 9.8 | 1450 | 3740 | 
 | CCCCn1cc2c(nc(NC(=O)Nc3ccc(OC)cc3)n3nc(-c4ccco4)nc23)n1 [Compound 49, 5-[[(4-Methoxyphenyl)amino]carbonyl]amino-8-butyl-2-(2-furyl)-pyrazolo[4,3-e]1,2,4-triazolo[1,5-c]pyrimidine] |  |  | 0.3 |  |  |  | 2100 | Ki (rA2A adenosine receptor): 649 nM
276 | CCN(CC)c1ccc(NC(=O)Nc2nc3nn(C)cc3c3nc(-c4ccco4)nn23)cc1 [Compound 102, N-[8-methyl-2-(2-furyl)-8H-pyrazolo[4,3-e][1,2,4]triazolo[1,5-c]pyrimidin-5-yl]-N′-[4-(diethylamino)phenyl]urea hydrochloride] | 680 | 593 |  |  |  |  |  | 
 | CCCn1cc2c(nc(NC(=O)Nc3ccc(OC)cc3)n3nc(-c4ccco4)nc23)n1 [Compound 108, 5-[[(4-methoxyphenyl)amino]carbonyl]amino-8-propyl-2-(2-furyl)-pyrazolo[4, 3]-e-1 ,2,4-triazolo[1,5-c]pyrimidine] | 1200 | 141 |  |  |  |  |  | 
609 | CN(C)c1ccc(NC(=O)Nc2nc3nn(C)cc3c3nc(-c4ccco4)nn23)cc1 [Compound 103, N-[8-methyl-2-(2-furyl)-8H-pyrazolo[4,3-e][1,2,4]triazolo[1,5-c]pyrimidin-5-yl]-N′-[4-(dimethylamino)phenyl]urea hydrochloride] | > 10000 | > 10000 |  |  |  |  |  | 
 | CCn1cc2c(nc(NC(=O)Nc3ccc(OC)cc3)n3nc(-c4ccco4)nc23)n1 [Compound 109] | 1030 | 1040 |  |  |  |  |  | Ki [4]: 0.28 nM; hA1/hA3 [4]: 3660; hA2A/hA3 [4]: 3730
 | CC(C)=CCn1cc2c(nc(N)n3nc(-c4ccco4)nc23)n1 [Compound 39, 5-Amino-8-(2-isopentenyl)-2-(2-furyl)-pyrazolo[4,3-e]1,2,4-triazolo[1,5-c]pyrimidine] |  |  | 887 | 0.01 | 0.001 | 1.45 | 10.1 | 
 | O=C(Nc1cccc(Cl)c1)Nc1nc2nn(CCc3ccccc3)cc2c2nc(-c3ccco3)nn12 [Compound 54, 5-[[(3-Chlorophenyl)amino]carbonyl]amino-8-(2-(phenyl)ethyl)-2-(2-furyl)-pyrazolo[4,3-e]1,2,4-triazolo[1,5-c]pyrimidine] |  |  | 13.3 | 79 | 128 | 1700 | 1050 | 

SMILES | Ki [3] [nM] | Ki [1] [nM] | Ki [2] [nM] | Ki [5] [nM] | rA1/hA3 [5] | rA2A/hA3 [5] | Ki (rA2A adenosine receptor; [6]) [nM] | Ki (rA1 adenosine receptor) [nM] | further results
CN1CCN(S(=O)(=O)c2ccc(NC(=O)Nc3nc4nn(C)cc4c4nc(-c5ccco5)nn34)cc2)CC1 [Compound 105, N-[2-(2-furyl)-8-methyl-8H-pyrazolo[4,3-e][1,2,4]triazolo[1,5-c]pyrimidin-5-yl]-N′{-4-[(4-methylpiperazin-1-yl)sulfonyl]-phenyl}urea] | > 1000 | > 1000 | > 1000 |  |  |  |  |  | Ki [4]: 29 nM; hA1/hA3 [4]: 34.5; hA2A/hA3 [4]: 34.5; hA2B/hA3 [4]: 34.5
Cn1cc2c(nc(NC(=O)Nc3ccc(S(=O)(=O)N4CCOCC4)cc3)n3nc(-c4ccco4)nc23)n1 [Compound 104] | > 10000 | 726 | 1400 |  |  |  |  |  | Ki [4]: 2.47 nM; hA1/hA3 [4]: 294; hA2A/hA3 [4]: 566; hA2B/hA3 [4]: 4050
